# Data: patent US20220185822A1, “SELECTIVE LIGANDS OF HUMAN CONSTITUTIVE ANDROSTANE RECEPTOR” (USTAV ORGANICKE CHEMIE A BIOCHEMIE AV CR, V.V.I., priority 2019, published 2022)
# Columns and labels:
# [1] = tested on: thyroid hormone receptors; test: Luciferase reporter assay with GAL4 construct with LBD, thyroid hormone receptors; type: cell-based, human; details: 10 μM/L
# [2] = tested on: CAR target genes mRNAs (Cyp2b10, Cyp2c29, CYP3A4); test: Single dose study in humanized PXR-CAR-CYP3A4/3A7 mice, liver RT-qPCR; type: in vivo; details: single p.o. 10 mg/kg, 24 hours (FIG. 5)
# Protocol: Four males were used in each group. Livers were sampled 24 hours after application into liquid nitrogen for qRT-PCR analysis.
# Delta-delta method and GAPDH/Gapdh or B2M/B2m housekeeping genes were used for relative quantification. Data are expressed as fold up-/down-regulation compare to vehicle-treated samples/mice.
# human androgen receptor = molecular target: T1, human androgen receptor (Homo sapiens, UniProt P10275); test: Luciferase reporter assay with GAL4 construct with LBD, androgen receptor; type: cell-based; details: 10 μM/L
# T1 construct: luciferase reporter assays with a GAL4 constructs with LBD of tested nuclear receptors; expressed in transfected cells
# [3] = molecular target: T2, human potassium channel hERG (Homo sapiens, UniProt Q12809); test: FluxOR II Green Potassium Ion Channel Assay with HEK293-hERG cells; type: cell-based; details: at 20 μM/L
# T2 construct: expressed in transfected cells; host or cells: HEK293-hERG
# Protocol: For compound of EXAMPLE 93, The FluxOR™ II Green Potassium Ion Channel Assay with HEK293-hERG cells (stably expressing human potassium channel hERG) seeded on Poly-D-Lysine-coated 384-well microplates (Corning, Cat. #356663) was used according to the manufacturer's instructions. hERG stimulation buffer containing thallium and potassium was added and the intracellular fluorescence was measured.
# T2 sequence (Q12809 whole entry): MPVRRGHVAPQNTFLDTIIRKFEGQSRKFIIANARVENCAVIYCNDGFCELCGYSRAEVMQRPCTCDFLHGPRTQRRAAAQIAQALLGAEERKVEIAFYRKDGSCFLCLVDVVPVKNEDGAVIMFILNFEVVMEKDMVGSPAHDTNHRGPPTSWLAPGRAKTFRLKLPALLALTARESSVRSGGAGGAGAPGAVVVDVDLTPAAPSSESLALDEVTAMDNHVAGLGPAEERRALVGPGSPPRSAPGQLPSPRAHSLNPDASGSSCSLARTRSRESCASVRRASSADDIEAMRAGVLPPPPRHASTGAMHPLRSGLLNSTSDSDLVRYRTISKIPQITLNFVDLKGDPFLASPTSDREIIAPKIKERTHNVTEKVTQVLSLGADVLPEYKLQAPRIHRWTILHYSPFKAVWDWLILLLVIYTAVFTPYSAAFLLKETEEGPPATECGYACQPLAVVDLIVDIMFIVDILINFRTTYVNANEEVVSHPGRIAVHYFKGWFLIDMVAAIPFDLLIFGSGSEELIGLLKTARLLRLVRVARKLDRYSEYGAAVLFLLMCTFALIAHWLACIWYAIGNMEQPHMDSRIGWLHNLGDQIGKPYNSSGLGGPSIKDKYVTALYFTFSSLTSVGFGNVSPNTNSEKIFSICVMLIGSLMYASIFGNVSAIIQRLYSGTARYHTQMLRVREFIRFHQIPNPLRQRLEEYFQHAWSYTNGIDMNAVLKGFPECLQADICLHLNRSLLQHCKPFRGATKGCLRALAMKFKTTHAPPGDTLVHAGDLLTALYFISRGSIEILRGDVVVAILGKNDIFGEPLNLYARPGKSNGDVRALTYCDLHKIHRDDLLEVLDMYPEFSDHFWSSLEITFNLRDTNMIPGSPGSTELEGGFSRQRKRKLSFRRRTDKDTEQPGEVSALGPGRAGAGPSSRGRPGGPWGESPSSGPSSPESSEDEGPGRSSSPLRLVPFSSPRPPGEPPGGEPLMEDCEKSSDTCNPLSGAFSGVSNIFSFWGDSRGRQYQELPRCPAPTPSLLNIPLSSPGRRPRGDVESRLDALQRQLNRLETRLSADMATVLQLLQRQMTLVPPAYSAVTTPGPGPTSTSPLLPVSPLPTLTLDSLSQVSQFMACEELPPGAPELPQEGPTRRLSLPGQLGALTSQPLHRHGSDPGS
# T1 sequence (P10275 669-900 limits assumed): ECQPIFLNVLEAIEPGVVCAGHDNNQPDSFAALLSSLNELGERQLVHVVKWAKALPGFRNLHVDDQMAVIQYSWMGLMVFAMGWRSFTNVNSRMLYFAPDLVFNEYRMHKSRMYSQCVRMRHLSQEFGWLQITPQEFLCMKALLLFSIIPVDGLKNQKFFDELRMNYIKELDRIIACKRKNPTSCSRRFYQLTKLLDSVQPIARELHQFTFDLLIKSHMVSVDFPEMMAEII
compound,measurement,setting,value
"NC(=O)c1cc(Cn2cc(-c3c(-c4ccc(Cl)cc4)nc4cc(F)ccn34)nn2)ccc1Cl [Example 93, 2-Chloro-5-((4-(2-(4-chlorophenyl)-7-fluoroimidazo[1,2-a]pyridin-3-yl)-1H-1,2,3-triazol-1-yl)methyl)benzamide]",activation of thyroid hormone receptors,[1],do not activate
same,CYP3A4 mRNA in the liver,[2],up-regulate
same,Cyp2b10 mRNA in the liver,[2],up-regulate
same,Cyp2c29 mRNA in the liver,[2],up-regulate
same,activation of human androgen receptor,human androgen receptor,do not activate
same,"interference with hERG activity (FluxOR, HEK293-hERG)",[3],do not interfere with hERG activity
